Experimental data: patent US6737383B1, “Herbicidal oxadiazolidines” (priority 1999, dated 2004)

Key:
blackgrass = assay: Test B pre/postemergence blackgrass; assay type: in vivo, Alopecurus myosuroides
Method in brief: (§1)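 Herbicidal effect was estimated by eye on a ten-point control scale after plants spent twelve to sixteen days in a greenhouse following soil or foliar treatment. Foliar sprays targeted plants at one to four leaves; all doses were formulated in a non-phytotoxic solvent with surfactant.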

surinam grass = assay: Test B pre/postemergence surinam grass; assay type: in vivo, Brachiaria decumbens
Method in brief: as §1

cocklebur = assay: Test B pre/postemergence cocklebur; assay type: in vivo, Xanthium strumarium
Method in brief: as §1

corn = assay: Test B pre/postemergence corn; assay type: in vivo, Zea mays
Method in brief: as §1

crabgrass = assay: Test B pre/postemergence crabgrass; assay type: in vivo, Digitaria sanguinalis
Method in brief: as §1

giant foxtail = assay: Test B pre/postemergence giant foxtail; assay type: in vivo, Setaria faberii
Method in brief: as §1

morningglory = assay: Test B pre/postemergence morningglory; assay type: in vivo, Ipomoea hederacea
Method in brief: as §1

pigweed = assay: Test B pre/postemergence pigweed; assay type: in vivo, Amaranthus retroflexus
Method in brief: as §1

rape = assay: Test B pre/postemergence rape; assay type: in vivo, Brassica napus
Method in brief: as §1

soybean = assay: Test B pre/postemergence soybean; assay type: in vivo, Glycine max
Method in brief: as §1

sugar beet = assay: Test B pre/postemergence sugar beet; assay type: in vivo, Beta vulgaris
Method in brief: as §1

velvetleaf = assay: Test B pre/postemergence velvetleaf; assay type: in vivo, Abutilon theophrasti
Method in brief: as §1

wheat = assay: Test B pre/postemergence wheat; assay type: in vivo, Triticum aestivum
Method in brief: as §1

wild oat = assay: Test B pre/postemergence wild oat; assay type: in vivo, Avena fatua
Method in brief: as §1

purple nutsedge = assay: Test B pre/postemergence purple nutsedge; assay type: in vivo, Cyperus rotundus
Method in brief: as §1

rice = assay: Test B flood test rice; assay type: in vivo, Oryza sativa
Method in brief: (§2)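 Flood test on plants grown to the 2-leaf stage; treated plants kept in greenhouse twelve to sixteen days, then visually rated against controls on a 0 (no effect) to 10 (complete control) scale.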

smallflower flatsedge = assay: Test B flood test smallflower flatsedge; assay type: in vivo, Cyperus difformis
Method in brief: as §2

duck salad = assay: Test B flood test duck salad; assay type: in vivo, Heteranthera limosa
Method in brief: as §2

bamyardgrass = assay: Test B flood test barnyardgrass; assay type: in vivo, Echinochloa crus-galli
Method in brief: as §2

[1] = Postemergence, Rate 62 g/ha, scale 0 to 10, 0 is no effect, 10 is complete control
[2] = Postemergence, Rate 125 g/ha, scale of 0 to 10 where 0 is no effect and 10 is complete control
[3] = Postemergence, Rate 250 g/ha, scale of 0 to 10, 0 is no effect, 10 is complete control
[4] = Postemergence, Rate 500 g/ha, scale of 0 to 10 where 0 is no effect and 10 is complete control
[5] = Preemergence, Rate 62 g/ha, scale of 0 to 10 where 0 is no effect and 10 is complete control
[6] = Preemergence, Rate 125 g/ha, scale of 0 to 10 where 0 is no effect and 10 is complete control
[7] = Preemergence, Rate 250 g/ha, scale 0 to 10 (0 no effect, 10 complete control)
[8] = Preemergence, Rate 500 g/ha, scale of 0 to 10 where 0 is no effect and 10 is complete control
[9] = Rate 62 g/ha, flood test species, Pre-emergence, visual evaluation after twelve to sixteen days
[10] = Rate 125 g/ha, under heading Pre-emergence, flood test species, visual evaluation after twelve to sixteen days
[11] = Rate 250 g/ha, Pre-emergence (flood test species), scale 0 to 10, 0 is no effect, 10 is complete control
[12] = Rate 500 g/ha, Pre-emergence section of Table B, 0 to 10 scale (0 no effect, 10 complete control)

## CC(C)N(C(=O)n1oc(=O)n(CC(=O)C2CCC2)c1=O)c1ccccc1 [Compound 641]
blackgrass; [1]
  Plant response rating, Blackgrass: 0
blackgrass; [2]
  Plant response rating, Blackgrass: 0
blackgrass; [3]
  Blackgrass plant response rating: 2
blackgrass; [4]
  Plant response rating, Blackgrass: 6
blackgrass; [5]
  Blackgrass plant response rating: 0
blackgrass; [6]
  Blackgrass plant response rating: 0
blackgrass; [7]
  Plant response rating, Blackgrass: 2
blackgrass; [8]
  Plant response rating, Blackgrass: 8
Surinam grass; [1]
  Plant response rating, B. signalgrass: 0
Surinam grass; [2]
  Plant response rating, B. signalgrass: 0
Surinam grass; [3]
  B. signalgrass plant response rating: 0
Surinam grass; [4]
  Plant response rating, B. signalgrass: 4
Surinam grass; [5]
  B. signalgrass plant response rating: 0
Surinam grass; [6]
  B. signalgrass plant response rating: 0
Surinam grass; [7]
  Plant response rating, B. signalgrass: 6
Surinam grass; [8]
  Plant response rating, B. signalgrass: 8
cocklebur; [1]
  Plant response rating, Cocklebur: 0
cocklebur; [2]
  Plant response rating, Cocklebur: 0
cocklebur; [3]
  Cocklebur plant response rating: 0
cocklebur; [4]
  Plant response rating, Cocklebur: 0
cocklebur; [5]
  Cocklebur plant response rating: 0
cocklebur; [6]
  Cocklebur plant response rating: 0
cocklebur; [7]
  Plant response rating, Cocklebur: 0
cocklebur; [8]
  Plant response rating, Cocklebur: 0
corn; [1]
  Plant response rating, Corn: 0
corn; [2]
  Plant response rating, Corn: 0
corn; [3]
  Corn plant response rating: 0
corn; [4]
  Plant response rating, Corn: 0
corn; [5]
  Corn plant response rating: 0
corn; [7]
  Plant response rating, Corn: 0
corn; [8]
  Plant response rating, Corn: 2
crabgrass; [1]
  Plant response rating, Crabgrass: 0
crabgrass; [2]
  Plant response rating, Crabgrass: 0
crabgrass; [3]
  Crabgrass plant response rating: 3
crabgrass; [4]
  Plant response rating, Crabgrass: 6
crabgrass; [5]
  Crabgrass plant response rating: 0
crabgrass; [6]
  Crabgrass plant response rating: 3
crabgrass; [7]
  Plant response rating, Crabgrass: 7
crabgrass; [8]
  Plant response rating, Crabgrass: 9
Giant foxtail; [1]
  Plant response rating, Giant foxtail: 0
Giant foxtail; [2]
  Plant response rating, Giant foxtail: 0
Giant foxtail; [3]
  Giant foxtail plant response rating: 3
Giant foxtail; [4]
  Plant response rating, Giant foxtail: 6
Giant foxtail; [5]
  Giant foxtail plant response rating: 5
Giant foxtail; [6]
  Giant foxtail plant response rating: 9
Giant foxtail; [7]
  Plant response rating, Giant foxtail: 9
Giant foxtail; [8]
  Plant response rating, Giant foxtail: 9
morningglory; [1]
  Plant response rating, Morningglory: 0
morningglory; [2]
  Plant response rating, Morningglory: 1
morningglory; [3]
  Morningglory plant response rating: 7
morningglory; [4]
  Plant response rating, Morningglory: 9
morningglory; [5]
  Morningglory plant response rating: 0
morningglory; [6]
  Morningglory plant response rating: 0
morningglory; [7]
  Plant response rating, Morningglory: 0
morningglory; [8]
  Plant response rating, Morningglory: 0
pigweed; [2]
  Plant response rating, Redroot pigweed: 0
pigweed; [3]
  Redroot pigweed plant response rating: 3
pigweed; [5]
  Redroot pigweed plant response rating: 0
pigweed; [6]
  Redroot pigweed plant response rating: 0
pigweed; [7]
  Plant response rating, Redroot pigweed: 0
pigweed; [8]
  Plant response rating, Redroot pigweed: 7
rape; [1]
  Plant response rating, Rape: 0
rape; [2]
  Plant response rating, Rape: 0
rape; [3]
  Rape plant response rating: 0
rape; [4]
  Plant response rating, Rape: 0
rape; [5]
  Rape plant response rating: 0
rape; [8]
  Plant response rating, Rape: 0
soybean; [1]
  Plant response rating, Soybean: 0
soybean; [2]
  Plant response rating, Soybean: 0
soybean; [3]
  Soybean plant response rating: 1
soybean; [5]
  Soybean plant response rating: 0
soybean; [6]
  Soybean plant response rating: 0
soybean; [7]
  Plant response rating, Soybean: 0
soybean; [8]
  Plant response rating, Soybean: 0
Sugar beet; [1]
  Plant response rating, Sugarbeets: 0
Sugar beet; [2]
  Plant response rating, Sugarbeets: 0
Sugar beet; [3]
  Sugarbeets plant response rating: 0
Sugar beet; [5]
  Sugarbeets plant response rating: 0
Sugar beet; [6]
  Sugarbeets plant response rating: 0
Sugar beet; [7]
  Plant response rating, Sugarbeets: 0
Sugar beet; [8]
  Plant response rating, Sugarbeets: 0
velvetleaf; [1]
  Plant response rating, Velvetleaf: 0
velvetleaf; [2]
  Plant response rating, Velvetleaf: 0
velvetleaf; [3]
  Velvetleaf plant response rating: 0
velvetleaf; [5]
  Velvetleaf plant response rating: 0
velvetleaf; [6]
  Velvetleaf plant response rating: 0
velvetleaf; [7]
  Plant response rating, Velvetleaf: 0
velvetleaf; [8]
  Plant response rating, Velvetleaf: 0
wheat; [1]
  Plant response rating, Wheat: 0
wheat; [2]
  Plant response rating, Wheat: 0
wheat; [3]
  Wheat plant response rating: 0
wheat; [5]
  Wheat plant response rating: 0
wheat; [6]
  Wheat plant response rating: 0
wheat; [7]
  Plant response rating, Wheat: 0
wheat; [8]
  Plant response rating, Wheat: 0
Wild oat; [1]
  Plant response rating, Wild oats: 0
Wild oat; [2]
  Plant response rating, Wild oats: 1
Wild oat; [3]
  Wild oats plant response rating: 1
Wild oat; [5]
  Wild oats plant response rating: 0
Wild oat; [6]
  Wild oats plant response rating: 0
Wild oat; [7]
  Plant response rating, Wild oats: 0
Wild oat; [8]
  Plant response rating, Wild oats: 5
Purple nutsedge; [1]
  Plant response rating, Nutsedge: 0
Purple nutsedge; [2]
  Plant response rating, Nutsedge: 0
Purple nutsedge; [3]
  Nutsedge plant response rating: 4
Purple nutsedge; [5]
  Nutsedge plant response rating: 0
Purple nutsedge; [6]
  Nutsedge plant response rating: 0
Purple nutsedge; [7]
  Plant response rating, Nutsedge: 0
Purple nutsedge; [8]
  Plant response rating, Nutsedge: 3
rice; [9]
  Plant response rating, Rice (0 to 10 scale, 0 is no effect, 10 is complete control): 0
rice; [10]
  Rice plant response rating (0 to 10 scale, 0 is no effect, 10 is complete control): 0
rice; [11]
  Rice plant response rating: 0
rice; [12]
  Rice plant response rating: 0
Smallflower flatsedge; [9]
  Plant response rating, S. Flatsedge (0 to 10 scale, 0 is no effect, 10 is complete control): 0
Smallflower flatsedge; [10]
  S. Flatsedge plant response rating (0 to 10 scale, 0 is no effect, 10 is complete control): 0
Smallflower flatsedge; [11]
  S. Flatsedge plant response rating: 0
Smallflower flatsedge; [12]
  S. Flatsedge plant response rating: 0
Duck salad; [9]
  Plant response rating, Ducksalad (0 to 10 scale, 0 is no effect, 10 is complete control): 0
Duck salad; [10]
  Ducksalad plant response rating (0 to 10 scale, 0 is no effect, 10 is complete control): 0
Duck salad; [11]
  Ducksalad plant response rating: 0
Duck salad; [12]
  Ducksalad plant response rating: 0
bamyardgrass; [9]
  Plant response rating, Barnyardgrass (0 to 10 scale, 0 is no effect, 10 is complete control): 0
bamyardgrass; [10]
  Barnyardgrass plant response rating (0 to 10 scale, 0 is no effect, 10 is complete control): 0
bamyardgrass; [11]
  Barnyardgrass plant response rating: 0
bamyardgrass; [12]
  Barnyardgrass plant response rating: 0
